Assay [1] concerns M.tb. Nature of the assay: CFU assay, M.tb-infected murine lung macrophages. It counts as cell-based, Mycobacterium tuberculosis. To be noted: 30 μM pan inhibitor, 2 days of treatment, MOI 1.
In assay [2] the test system is M.tb. Nature of the assay: CFU assay, M.tb-infected murine BMDMs. To be noted: 30 μM pan inhibitor, 4 days of treatment, MOI 1. It counts as cell-based, Mycobacterium tuberculosis.
A further assay deals with M.tb-lux. It counts as cell-based, Mycobacterium tuberculosis.
In assay [3] the test system is M.tb. It counts as in vivo, BALB/c mice. To be noted: isoniazid positive control, vs placebo.
Assay [4] relates to M.tb. Nature of the assay: CFU assay, M.tb-infected human in vitro TB granulomas. Format: cell-based, Mycobacterium tuberculosis. The conditions noted are these: 30 μM sabutoclax, 7 days.

Four molecules from patent publication US20240180929A1, “TREATMENT OF INFECTIOUS DISEASES USING BCL-2 FAMILY PROTEIN INHIBITORS” (TEXAS BIOMEDICAL RESEARCH INSTITUTE, priority 2020, published 2024) can be followed below.

Consider `CC(C)c1ccccc1Cc1cc(C(=O)Nc2ccc(S(=O)(=O)c3ccccc3C(C)(C)C)cc2)c(O)c(O)c1O` [TW37], for which the “number of M.tb CFUs in lung macrophages” value in the assay with M.tb [1] is on record as “reduction in the number of M.tb CFUs”. In addition, in the assay on M.tb [2], the “M.tb CFUs normalized to DMSO control in BMDMs” value is “reduction in the number of M.tb CFUs”.
As for `Cc1c(-c2c(-c3ccc(F)o3)sc3ncnc(O[C@H](Cc4ccccc4OCc4ccnn4CC(F)(F)F)C(=O)O)c23)ccc(OCCN2CCN(C)CC2)c1Cl` [S63845], the “M.tb growth in human MDMs (luciferase)” value in the assay on M.tb-lux was “reduced M.tb growth in donor 1 after 4 days, but to a limited extent relative to the pan inhibitor Sabutoclax”.
Regarding `NNC(=O)c1ccncc1` [isoniazid], in the assay on M.tb [3], the “M.tb growth in murine lungs (CFU)” value was “significantly reduced M.tb growth in murine lungs”; the “M.tb growth in murine spleen (CFU)” value is “significantly reduced M.tb growth”; the “acid fast stained M.tb in the mouse lung” value is listed as “reduction in bacteria”; the “lung inflammation (hematoxylin and eosin stain)” value is on record as “reduced inflammation”.
For the molecule `Cc1cc2c(C(=O)NC[C@H](C)c3ccccc3)c(O)c(O)cc2c(O)c1-c1c(C)cc2c(C(=O)NC[C@H](C)c3ccccc3)c(O)c(O)cc2c1O` [sabutoclax], in the assay on M.tb [4], the “M.tb growth in human granulomas (CFU)” value is on record as “significant reduction in M.tb growth”. Besides, the “number of M.tb CFUs in lung macrophages” value in the assay with M.tb [1] was “reduction in the number of M.tb CFUs”. The “M.tb CFUs normalized to DMSO control in BMDMs” value in the assay on M.tb [2] is listed as “reduction in the number of M.tb CFUs”.
